Measured values published in paper PMC11563196 (Chemical communications (Cambridge, England), 2024).
One block for each molecule: values may come before it.

Experiments:
HDAC3 [1] = test system: HDAC3; set-up: method as in PMID 35008795; details: cited from earlier work
HDAC1 [2] = test system: HDAC1; set-up: method as in PMID 35008795; details: cited from earlier work
HDAC2 [3] = test system: HDAC2; set-up: method as in PMID 35008795; details: cited from earlier work
HDAC2 [4] = target: T1, HDAC2 (Homo sapiens, UniProt Q92769); test: HDAC2 abundance by quantitative fluorescence western blotting in HCT116 cells; assay type: cell-based; details: for Dose response degradation of HDAC2: 24 h, 0.01-10 μM, two independent biological replicates; for HDAC2 abundance / degradation / HDAC2 abundance: initial screen, 24 hours; for HDAC2 abundance: at 0.1 μM and 1 μM
T1 construct: endogenous in cells; host or cells: HCT116 (ATCC CCL-247)
T1 sequence (Q92769 whole entry): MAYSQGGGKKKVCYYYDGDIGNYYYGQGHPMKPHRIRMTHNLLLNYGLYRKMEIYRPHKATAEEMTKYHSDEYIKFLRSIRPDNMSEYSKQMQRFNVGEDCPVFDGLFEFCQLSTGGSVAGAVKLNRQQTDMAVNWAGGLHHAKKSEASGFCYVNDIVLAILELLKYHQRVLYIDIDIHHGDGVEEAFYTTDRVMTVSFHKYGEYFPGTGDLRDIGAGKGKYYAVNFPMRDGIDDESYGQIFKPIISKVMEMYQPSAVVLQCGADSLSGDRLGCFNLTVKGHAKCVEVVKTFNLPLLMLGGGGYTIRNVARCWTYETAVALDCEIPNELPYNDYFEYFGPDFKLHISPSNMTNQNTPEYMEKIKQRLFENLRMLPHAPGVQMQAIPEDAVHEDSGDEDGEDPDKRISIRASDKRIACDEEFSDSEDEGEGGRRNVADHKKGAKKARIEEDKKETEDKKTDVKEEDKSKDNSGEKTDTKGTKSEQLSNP
Protocol: (§1) We screened these compounds side-by side with JPS004 a VHL based HDAC1–3 targeting PROTAC and the HDAC1–3 inhibitor CI-994 as control compounds for degradation and inhibition, respectively. […] HCT116 cells were incubated for 24 hours with the compounds and HDAC1, HDAC2 and HDAC3 abundance was quantified by fluorescence western blotting. We also determined the effects on Histone 3 Lysine 56 acetylation (H3K56ac) levels as a secondary assay, for in-cell HDAC inhibition or degradation. […] Similar to our previous observations with VHL recruiting PROTACs, HDAC2 reduction was less affected. It was noteworthy that 7 also incorporated a 12 carbon alkyl linker, which has been an effective linker in our previous studies.[10],[11] Pleasingly, compounds 3–8 also had more modest effects on HDAC3 abundance compared to previously reported VHL recruiting PROTACs.[6]–[13] […] However, while surprising, it is not unprecedented as we and others have observed similar effects on histone acetylation markers with HDAC3 targeting PROTACs.[11],[13],[18]
(§2) Fig. 3 HDAC1, HDAC2, HDAC3 abundance were determined by quantitative western blotting with antibodies for HDAC1, HDAC2, HDAC3 in HCT116 cells after 24 hours. H3K56 acetylation levels were also determined by quantitative western blotting with an antibody for H3K56ac, and the fold change was compared between compounds at 10 μM, normalising treatment with inhibitor CI 994 = 1.0.
(§3) Supplementary Information: Biology
(§4) 1. Cell Culture, Compound Handling and Western Blotting Protocols
(§5) The HCT116 cell line used in this study was obtained from ATCC (CCL-247). HCT116 human colon carcinoma cells were grown in a Dulbecco’s modified Eagle medium (GIBCO, 41965-039) supplemented with 10% FBS (Sigma) and 1X glutamine/penicillin/streptomycin (GIBCO, 10378−016). Cells were incubated at 37 °C with 5% CO2. Cells were treated with compounds at indicated concentrations (0.01−10 μM). All compounds were made up to a standard solution of 10 mM in DMSO, serially diluted in DMSO, then added to fresh medium (5 mL total) to afford the concentrations stated (0.01−10 μM), with a final DMSO volume of […]
(§6) HCT116 cells were seeded into 6-well plates (4 × 10^5 cells/well) for 24 hours and then treated with DMSO or compounds at the indicated concentrations in fresh medium (5 mL total). After 24 hours treatment time, the cells were harvested and then lysed in lysis buffer (50 mM Tris-HCl, 150 mM NaCl, 0.5% NP-40, 0.5% Triton X-100) supplemented with a protease inhibitor (Sigma, P8340). The suspension was incubated on ice for 30 min, then centrifuged (18,000 rcf, 15 min, 4 °C) and the supernatant collected. Protein concentrations were quantified via Bradford Assay using Protein Assay Dye Reagent Concentrate (BIO-RAD). For histone extraction, an equal volume of 0.4 N H2SO4 was added to the pellets, and the extracts were placed at 4 °C overnight, centrifuged (18,000 rcf, 15 min, 4 °C), then the supernatant (histone extract) collected.
(§7) Western blots were run on NuPAGE 4−12% bis−Tris gels with 30 μg of protein or 10 μL of ac id-extracted histone loaded per lane, using NuPAGE LDS sample buffer (4X). PageRuler Plus Prestained Ladder was used for size standards. After gel electrophoresis at 140 V for 90 min, the separated proteins were transferred onto a nitrocellulose membrane at 30 V for 60 min. The membranes were probed with primary antibodies (as indicated below) for 60−90 min. Blots were developed with complimentary IRDye®-conjugated secondary antibodies, and the bands were visualized using an Odyssey infrared imaging system. Image processing and band intensity quantification were performed using Image Studio Lite.
(§8) 2. Western Blotting Results
(§9) 2.1. Western Blotting Analysis of Compounds 3-15 from Initial Screen
(§10) Figure S1. Western blotting of HDAC1/2/3 proteins in HCT116 cells treated with compounds 3-15.
(§11) (1 picture or pasted object on this page, not shown here)

H3K56ac = test: Histone 3 Lysine 56 acetylation (H3K56ac) levels by quantitative western blotting in HCT116 cells; assay type: cell-based, human; details: for H3K56 acetylation levels: rescreen with methylated controls (Fig. 4C); for H3K56ac levels: initial screen, HCT116 cells, 24 hours, fold change compared at 10 μM
Protocol: as §1, §2, §3, §4, §5, §6
as §7, with “Blots were developed with complimentary IRDye®-conjugated secondary antibodies, and the bands were visualized using an Odyssey infrared imaging system.” left out, “Lite. […]” for “Lite.”

HDAC3 [5] = target: T2, HDAC3 (Homo sapiens, UniProt O15379); test: HDAC3 abundance by quantitative fluorescence western blotting in HCT116 cells; assay type: cell-based; details: for Dose response degradation of HDAC3: 24 h, 0.01-10 μM, two independent biological replicates; for HDAC3 abundance / degradation: initial screen, 24 hours
T2 construct: endogenous in cells; host or cells: HCT116 (ATCC CCL-247)
T2 sequence (O15379 whole entry): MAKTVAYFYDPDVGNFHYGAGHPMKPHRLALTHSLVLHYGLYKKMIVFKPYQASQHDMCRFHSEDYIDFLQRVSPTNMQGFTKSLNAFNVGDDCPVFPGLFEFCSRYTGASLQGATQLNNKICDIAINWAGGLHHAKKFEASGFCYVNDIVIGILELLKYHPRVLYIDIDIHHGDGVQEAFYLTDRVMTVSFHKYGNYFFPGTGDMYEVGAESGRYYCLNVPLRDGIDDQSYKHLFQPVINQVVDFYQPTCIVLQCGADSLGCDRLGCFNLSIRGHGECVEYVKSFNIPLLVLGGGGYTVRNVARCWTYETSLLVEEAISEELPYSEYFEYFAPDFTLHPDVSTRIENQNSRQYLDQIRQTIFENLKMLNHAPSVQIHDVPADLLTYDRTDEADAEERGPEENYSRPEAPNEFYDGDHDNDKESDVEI
T2 sequence (Q9Y618 whole entry partner): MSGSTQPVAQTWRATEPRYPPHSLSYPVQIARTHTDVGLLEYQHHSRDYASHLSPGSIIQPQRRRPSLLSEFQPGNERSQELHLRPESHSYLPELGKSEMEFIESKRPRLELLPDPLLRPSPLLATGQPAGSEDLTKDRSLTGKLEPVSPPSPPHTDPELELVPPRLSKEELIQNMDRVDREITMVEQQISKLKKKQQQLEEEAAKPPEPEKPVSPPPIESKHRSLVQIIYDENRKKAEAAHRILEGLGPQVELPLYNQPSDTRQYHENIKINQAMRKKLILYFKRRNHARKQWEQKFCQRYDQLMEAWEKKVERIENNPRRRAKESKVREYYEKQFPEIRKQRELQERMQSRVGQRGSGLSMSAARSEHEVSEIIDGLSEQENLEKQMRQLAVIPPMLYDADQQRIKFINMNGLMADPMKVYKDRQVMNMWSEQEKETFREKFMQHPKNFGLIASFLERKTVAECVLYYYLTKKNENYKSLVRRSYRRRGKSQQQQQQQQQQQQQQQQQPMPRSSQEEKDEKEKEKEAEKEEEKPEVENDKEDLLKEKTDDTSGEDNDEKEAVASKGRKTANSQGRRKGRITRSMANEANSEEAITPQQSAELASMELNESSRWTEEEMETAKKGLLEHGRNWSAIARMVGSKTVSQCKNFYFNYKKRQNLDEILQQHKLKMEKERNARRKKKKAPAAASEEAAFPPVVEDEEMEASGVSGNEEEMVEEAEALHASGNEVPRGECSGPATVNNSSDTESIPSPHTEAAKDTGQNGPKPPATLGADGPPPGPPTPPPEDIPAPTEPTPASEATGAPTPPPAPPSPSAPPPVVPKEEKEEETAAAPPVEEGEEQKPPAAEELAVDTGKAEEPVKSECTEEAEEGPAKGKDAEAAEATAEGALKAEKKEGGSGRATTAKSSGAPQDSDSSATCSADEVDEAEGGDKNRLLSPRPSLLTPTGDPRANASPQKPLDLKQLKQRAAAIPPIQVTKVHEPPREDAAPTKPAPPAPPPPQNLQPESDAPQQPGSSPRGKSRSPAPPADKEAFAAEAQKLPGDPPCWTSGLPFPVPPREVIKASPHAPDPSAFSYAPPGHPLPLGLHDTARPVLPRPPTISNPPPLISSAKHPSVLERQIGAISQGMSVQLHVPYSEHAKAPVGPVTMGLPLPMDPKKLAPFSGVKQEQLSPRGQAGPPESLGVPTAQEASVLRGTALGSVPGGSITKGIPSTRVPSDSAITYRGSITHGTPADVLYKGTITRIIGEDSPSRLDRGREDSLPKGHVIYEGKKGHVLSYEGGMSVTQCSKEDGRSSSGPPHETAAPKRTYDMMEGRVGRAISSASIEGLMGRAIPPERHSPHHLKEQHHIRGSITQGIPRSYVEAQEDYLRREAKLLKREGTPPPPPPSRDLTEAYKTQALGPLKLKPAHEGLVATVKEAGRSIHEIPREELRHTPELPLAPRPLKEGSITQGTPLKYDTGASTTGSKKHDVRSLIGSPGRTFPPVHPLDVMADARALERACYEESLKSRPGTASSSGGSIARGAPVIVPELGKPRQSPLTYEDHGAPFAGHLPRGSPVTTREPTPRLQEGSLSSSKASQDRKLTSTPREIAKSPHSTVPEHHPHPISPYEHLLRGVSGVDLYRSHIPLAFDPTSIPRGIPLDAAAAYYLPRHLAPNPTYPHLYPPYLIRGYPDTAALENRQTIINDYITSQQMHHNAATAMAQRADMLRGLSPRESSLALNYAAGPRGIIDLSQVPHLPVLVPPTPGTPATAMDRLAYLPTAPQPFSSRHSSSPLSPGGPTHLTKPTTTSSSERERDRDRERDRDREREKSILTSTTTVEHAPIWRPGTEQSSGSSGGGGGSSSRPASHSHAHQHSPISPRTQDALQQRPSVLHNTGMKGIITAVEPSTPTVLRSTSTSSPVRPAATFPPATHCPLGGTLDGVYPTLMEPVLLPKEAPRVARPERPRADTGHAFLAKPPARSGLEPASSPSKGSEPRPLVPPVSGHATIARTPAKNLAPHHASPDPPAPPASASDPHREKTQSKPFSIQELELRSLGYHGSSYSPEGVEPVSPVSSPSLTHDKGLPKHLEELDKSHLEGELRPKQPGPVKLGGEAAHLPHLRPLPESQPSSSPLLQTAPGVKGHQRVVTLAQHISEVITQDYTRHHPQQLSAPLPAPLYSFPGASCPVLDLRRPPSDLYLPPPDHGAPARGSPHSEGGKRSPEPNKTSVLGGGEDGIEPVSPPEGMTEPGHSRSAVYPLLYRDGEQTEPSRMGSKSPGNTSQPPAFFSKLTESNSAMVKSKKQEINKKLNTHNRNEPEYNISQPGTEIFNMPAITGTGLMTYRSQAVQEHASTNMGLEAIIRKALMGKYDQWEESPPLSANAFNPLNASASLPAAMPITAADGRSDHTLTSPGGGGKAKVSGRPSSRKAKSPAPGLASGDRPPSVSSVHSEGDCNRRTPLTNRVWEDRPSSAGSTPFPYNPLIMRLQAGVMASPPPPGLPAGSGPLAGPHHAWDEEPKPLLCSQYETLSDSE
Protocol: as §1, §2, §3, §4, §5, §6, §7, §8, §9, §10, §11

HDAC1 [6] = target: T3, HDAC1 (Homo sapiens, UniProt Q13547); test: HDAC1 abundance by quantitative fluorescence western blotting in HCT116 cells; assay type: cell-based; details: for Dose response degradation of HDAC1: 24 h, 0.01-10 μM, two independent biological replicates; for HDAC1 abundance: at 0.1 μM and 1 μM
T3 construct: endogenous in cells; host or cells: HCT116 (ATCC CCL-247)
T3 sequence (Q13547 whole entry): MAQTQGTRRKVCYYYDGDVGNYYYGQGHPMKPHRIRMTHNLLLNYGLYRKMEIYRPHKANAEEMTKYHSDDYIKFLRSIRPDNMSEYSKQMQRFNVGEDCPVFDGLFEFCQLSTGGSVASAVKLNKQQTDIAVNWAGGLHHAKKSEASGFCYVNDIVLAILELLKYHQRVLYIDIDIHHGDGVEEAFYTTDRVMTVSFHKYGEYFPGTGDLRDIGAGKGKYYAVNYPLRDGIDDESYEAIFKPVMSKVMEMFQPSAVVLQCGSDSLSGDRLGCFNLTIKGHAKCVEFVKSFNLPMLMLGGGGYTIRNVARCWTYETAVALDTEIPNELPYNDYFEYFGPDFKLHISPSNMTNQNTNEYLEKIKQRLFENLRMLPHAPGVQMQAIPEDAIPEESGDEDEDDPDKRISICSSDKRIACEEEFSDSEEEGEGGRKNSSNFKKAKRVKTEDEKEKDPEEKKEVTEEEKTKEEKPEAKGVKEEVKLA
Protocol: as §1, §2, §3, §4, §5
HCT116 cells were seeded into 6-well plates (4 × 10^5 cells/well) for 24 hours and then treated with DMSO or compounds at the indicated concentrations in fresh medium (5 mL total). After 24 hours treatment time, the cells were harvested and then lysed in lysis buffer (50 mM Tris-HCl, 150 mM NaCl, 0.5% NP-40, 0.5% Triton X-100) supplemented with a protease inhibitor (Sigma, P8340). The suspension was incubated on ice for 30 min, then centrifuged (18,000 rcf, 15 min, 4 °C) and the supernatant collected. Protein concentrations were quantified via Bradford Assay using Protein Assay Dye Reagent Concentrate (BIO-RAD). […] Western blots were run on NuPAGE 4−12% bis−Tris gels with 30 μg of protein or 10 μL of ac id-extracted histone loaded per lane, using NuPAGE LDS sample buffer (4X). PageRuler Plus Prestained Ladder was used for size standards. After gel electrophoresis at 140 V for 90 min, the separated proteins were transferred onto a nitrocellulose membrane at 30 V for 60 min. The membranes were probed with primary antibodies (as indicated below) for 60−90 min. Blots were developed with complimentary IRDye®-conjugated secondary antibodies, and the bands were visualized using an Odyssey infrared imaging system. Image processing and band intensity quantification were performed using Image Studio Lite.
as §8, §9, §10, §11

HDAC3 [7] = test system: HDAC3; set-up: method as in PMID 35293758; details: previous findings; cited from earlier work
HDAC1 [8] = test system: HDAC1; set-up: method as in PMID 35293758; details: previous findings; cited from earlier work
HDAC2 [9] = test system: HDAC2; set-up: method as in PMID 35293758; details: previous findings; cited from earlier work

SMILES: Nc1ccc(-c2ccc(F)cc2)cc1NC(=O)c1cnc(N2CCNCC2)cn1 [Compound 1]
IC50 (HDAC3 [1]): 6.7 µM
IC50 (HDAC1 [2]): 160 nM
IC50 (HDAC2 [3]): 340 nM

Dose response degradation of HDAC2 (HDAC2 [4]): dose dependent degradation
Dose response degradation of HDAC3 (HDAC3 [5]): a hook effect was observed
Dose response degradation of HDAC1 (HDAC1 [6]): dose dependent degradation
SMILES: Nc1ccccc1NC(=O)c1cnc(N2CCN(C(=O)CCC3CCN(c4cccc5c4C(=O)N(C4CCC(=O)NC4=O)C5=O)CC3)CC2)cn1 (stereo not shown) [Compound 5]
H3K56 acetylation levels (H3K56ac): increasing H3K56ac levels

Dose response degradation of HDAC3 (HDAC3 [5]): minimal HDAC3 degradation
Dose response degradation of HDAC1 (HDAC1 [6]): clear dose dependent HDAC1 degradation
HDAC1 degradation (HDAC1 [6]; initial screen, 24 hours, at 1 μM): greatest HDAC1 degradation
SMILES: Nc1ccccc1NC(=O)c1cnc(N2CCN(C(=O)CCCCCCCCCCCNc3cccc4c3C(=O)N(C3CCC(=O)NC3=O)C4=O)CC2)cn1 (stereo not shown) [Compound 7]
H3K56ac levels (H3K56ac): did not increase H3K56ac levels
H3K56 acetylation levels (H3K56ac): did not increase H3K56 acetylation levels
degradation selectivity (HDAC1 over HDAC3) (HDAC1 [6]; 24 hours): selective degradation of HDAC1 over HDAC3

HDAC2 abundance / degradation (HDAC2 [4]): no effects
HDAC3 abundance / degradation (HDAC3 [5]): no effects
HDAC1 abundance / degradation (HDAC1 [6]; initial screen, 24 hours): no effects
SMILES: Nc1ccccc1NC(=O)c1cnc(N2CCN(C(=O)CCCCCCCC(=O)NCCNc3cccc4c3C(=O)N(C3CCC(=O)NC3=O)C4=O)CC2)cn1 (stereo not shown) [Compound 9]
H3K56ac levels (H3K56ac): increase H3K56ac levels to greater levels than DMSO controls

HDAC2 abundance / degradation (HDAC2 [4]): no effects
HDAC3 abundance / degradation (HDAC3 [5]): no effects
HDAC1 abundance / degradation (HDAC1 [6]; initial screen, 24 hours): no effects
SMILES: Nc1ccc(-c2ccc(F)cc2)cc1NC(=O)c1cnc(N2CCN(CCCCCCNc3cccc4c3C(=O)N(C3CCC(=O)NC3=O)C4=O)CC2)cn1 (stereo not shown) [Compound 10]
H3K56ac levels (H3K56ac): increase H3K56ac levels to greater levels than DMSO controls

HDAC2 abundance (HDAC2 [4]): reduced
HDAC3 abundance / degradation (HDAC3 [5]): no HDAC3 degradation
HDAC1 abundance (HDAC1 [6]; initial screen, 24 hours): reduced
SMILES: Nc1ccc(-c2ccc(F)cc2)cc1NC(=O)c1cnc(N2CCN(C(=O)CCCCCNc3cccc4c3C(=O)N(C3CCC(=O)NC3=O)C4=O)CC2)cn1 (stereo not shown) [Compound 11]

HDAC2 abundance (HDAC2 [4]): reduced
Dose response degradation of HDAC3 (HDAC3 [5]): HDAC3 degradation was abolished
HDAC3 abundance / degradation (HDAC3 [5]): no HDAC3 degradation
HDAC1 abundance (HDAC1 [6]; initial screen, 24 hours): reduced
SMILES: Nc1ccc(-c2ccc(F)cc2)cc1NC(=O)c1cnc(N2CCN(C(=O)CCC3CCN(c4cccc5c4C(=O)N(C4CCC(=O)NC4=O)C5=O)CC3)CC2)cn1 (stereo not shown) [Compound 12]
Dose response degradation of HDAC2 (HDAC2 [4]): very similar dose dependent degradation of HDAC1 and HDAC2 to 5
Dose response degradation of HDAC1 (HDAC1 [6]): very similar dose dependent degradation of HDAC1 and HDAC2 to 5
degradation selectivity (HDAC1 over HDAC3) (HDAC1 [6]; 24 hours): selective degradation of HDAC1 over HDAC3

SMILES: Nc1ccc(-c2ccc(F)cc2)cc1NC(=O)c1cnc(N2CCN(C(=O)CCCCCCCCCCCNc3cccc4c3C(=O)N(C3CCC(=O)NC3=O)C4=O)CC2)cn1 (stereo not shown) [Compound 14]
HDAC1 abundance / degradation (HDAC1 [6]; initial screen, 24 hours): less effective at HDAC1 degradation compared to 11 and 12

SMILES: Nc1ccc(-c2ccc(F)cc2)cc1NC(=O)c1cnc(N2CCN(C(=O)CCCCCCCC(=O)N3CCN(c4cccc5c4C(=O)N(C4CCC(=O)NC4=O)C5=O)CC3)CC2)cn1 (stereo not shown) [Compound 15]
HDAC1 abundance / degradation (HDAC1 [6]; initial screen, 24 hours): less effective at HDAC1 degradation compared to 11 and 12

SMILES: Cc1ncsc1-c1ccc(CNC(=O)[C@@H]2C[C@@H](O)CN2C(=O)[C@@H](NC(=O)CCCCCCCCCCC(=O)Nc2ccc(C(=O)Nc3ccccc3N)cc2)C(C)(C)C)cc1 [JPS004]
HDAC3 degradation (HDAC3 [7]): HDAC3 degradation is compromised at concentrations >1 μM due to the hook effect
HDAC1 degradation (HDAC1 [8]): degrade
HDAC2 degradation (HDAC2 [9]): degrade

SMILES: Cc1ncsc1-c1ccc(CNC(=O)[C@@H]2C[C@@H](O)CN2C(=O)[C@@H](NC(=O)COCCCCCCCCCOCC(=O)Nc2ccc(C(=O)Nc3ccccc3N)cc2)C(C)(C)C)cc1 [JPS016]
HDAC3 degradation (HDAC3 [7]): hook effect for HDAC3
HDAC1 degradation (HDAC1 [8]): degrade
HDAC2 degradation (HDAC2 [9]): degrade

SMILES: Cc1ncsc1-c1ccc(CNC(=O)[C@@H]2C[C@@H](O)CN2C(=O)[C@@H](NC(=O)C2(F)CC2)C(C)(C)C)c(OCCCCCCCCCCCC(=O)Nc2ccc(C(=O)Nc3ccccc3N)cc2)c1 [JPS036]
HDAC3 degradation selectivity over HDAC1/2 (HDAC3 [7]): can enhance HDAC3 degradation selectivity over HDAC1/2
